Measured values taken from publication PMC10119927, “Compact Rotaxane Superbases” (Journal of the American Chemical Society, 2023).
Where “and” joins values, the source holds several entries; their conditions need not be identical. Equal entries are not always repeated. Entries after “also recorded” stand apart in the source; their conditions may differ. Where two headings read alike, the source gives them in different places. Each block holds one compound with its values, some of them ahead of it.

Experiments:
[1] = cited from earlier work
[2] = Hydrolytic decomposition in 1 M NaOD in 9:1 v/v CD3OD/D2O
[3] = pKaH+ determination by Lambert's method with reference bases (1H NMR); settings: for pKaH+: Lambert's method
Description: The pKaH^+ values shown were determined in CD3CN using Lambert’s method[8] with appropriate reference bases (see Supporting Information, Section 2.0).

[4] = Base-mediated elimination of HBr from 4-bromophenethyl bromide: deprotonation kinetics and protonation vs alkylation; settings: for Half-life, t1/2: calculated based on second-order kinetics; for half-life (h) (25 °C) / half-life (h) (80 °C): deprotonation of 4-bromophenethyl bromide
[5] = hydrolytic decomposition, 1 M NaOD, 9:1 CD3OD/D2O, 25 °C
[6] = 25 °C, 1 M NaOD in 9:1 d4-methanol:D2O, pseudo-first-order
[7] = hydrolytic decomposition, 1 M NaOD, 9:1 CD3OD/D2O, 80 °C
[8] = 80 °C, 1 M NaOD in 9:1 d4-methanol:D2O, pseudo-first-order
[9] = Table 1, conventional superbases
[10] = Table S1, conventional superbases

Structure (SMILES): NCCCCN [1,4-diaminobutane]
pKaH+ ([1]; in CD3CN, reference base): 20.1

Structure (SMILES): C1COCCOCCOCCOCCOCCOCCO1.FC(F)(F)c1cc(CNCc2cc(C(F)(F)F)cc(C(F)(F)F)c2)cc(C(F)(F)F)c1 [21C7⊂3]
hydrolytic stability (in words) ([2]; 1 M NaOD, 9:1 CD3OD/D2O): consumed completely within a matter of minutes; also recorded: decompose quickly
half-life (25 °C) [2, 5]: <0.083 h
pKaH+ (MeCN) ([3]; Table 1, rotaxanes): 24.9
pKaH+ ([3]; in CD3CN): 24.9 ± 0.1
increase in the basicity of the secondary amine upon encapsulation ([3]; rotaxane vs thread 3, from pKaH+ values): 10^13 fold
Half-life, t1/2 ([4]; 80 °C): 169.69 days
half-life (h) (25 °C) ([4]; 25 °C): >5000 h
half-life (h) (80 °C) ([4]; 80 °C): 4073 h
rate of substrate deprotonation relative to the other rotaxanes in the series ([4]; in words): much more slowly

Structure (SMILES): C1COCCOCCOCCOCCOCCOCCO1.FC(F)(F)c1cc(C[NH2+]Cc2cc(C(F)(F)F)cc(C(F)(F)F)c2)cc(C(F)(F)F)c1.F[P-](F)(F)(F)(F)F [21C7⊂3•HPF6]
Half-life [2, 6]: < 0.083 h
pKaH+ (MeCN) ([3]; Table S2, rotaxane HPF6 salts): 24.9

Structure (SMILES): C1COCCOCCOCCOCCOCCOCCO1.Cc1cc(C)cc(CNCc2cc(C)cc(C)c2)c1 [21C7⊂6]
hydrolytic stability (in words) ([2]; 1 M NaOD, 9:1 CD3OD/D2O): stable; also recorded: excellent chemical stability
half-life (25 °C) [2, 5]: >170 h
half-life (80 °C) [2, 7]: >170 h
pKaH+ (MeCN) ([3]; Table 1, rotaxanes): 32.2
basicity higher than either non-interlocked component ([3]; in CD3CN): ~13 orders of magnitude
pKaH+ ([3]; in CD3CN): 32.2 ± 0.6
Half-life, t1/2 ([4]; 25 °C): 0.00625 days
half-life (h) (25 °C) ([4]; 25 °C): 0.15 h
rate of deprotonation of 4-bromophenethyl bromide relative to the conventional organic superbases ([4]; in words): several thousand times faster

Structure (SMILES): C1COCCOCCOCCOCCOCCOCCO1.Cc1cc(C)cc(C[NH2+]Cc2cc(C)cc(C)c2)c1.F[P-](F)(F)(F)(F)F [21C7⊂6•HPF6]
Half-life [2, 8]: > 170 h
pKaH+ (MeCN) ([3]; Table S2, rotaxane HPF6 salts): 32.2

Structure (SMILES): C1CCC2=NCCCN2CC1 [DBU, 1,8-diazabicyclo(5.4.0)undec-7-ene, reference compound]
pKaH+ (MeCN) [1, 9]: 24.3[1]
pKaH+ (MeCN) [1, 10]: 24.3
pKaH+ (MeCN) ([1]; Table S2, reference superbases): 24.3
Half-life ([2]; buffer, Half-life, 25 °C, 1 M NaOD in 9:1 d4-methanol:D2O, pseudo-first-order): 10.9 h
Half-life ([2]; buffer, half-life (25 °C), hydrolytic decomposition, 1 M NaOD, 9:1 CD3OD/D2O, 25 °C): 11 h
Half-life, t1/2 ([4]; 25 °C): 26.47 days
half-life (h) (25 °C) ([4]; 25 °C): 635 h

Structure (SMILES): CN(C)P(=NC(C)(C)C)(N(C)C)N(C)C [P1-^tBu, tert-butylimino-tris(dimethylamino)phosphorane, reference compound]
pKaH+ (MeCN) [1, 9]: 27.0[1]
pKaH+ (MeCN) [1, 10]: 27
pKaH+ (MeCN) ([1]; Table S2, reference superbases): 27.0
Half-life [2, 8]: > 170 h
half-life (25 °C) [2, 5]: >170 h
half-life (80 °C) [2, 7]: >170 h
Half-life, t1/2 ([4]; 25 °C): 17.45 days
half-life (h) (25 °C) ([4]; 25 °C): 419 h

Structure (SMILES): CN(C)c1cccc2cccc(N(C)C)c12 [proton-sponge]
pKaH+ ([1]; in MeCN): 18.6

The next lines start with results.

hydrolytic stability (in words) ([2]; 1 M NaOD, 9:1 CD3OD/D2O): decompose quickly
half-life (25 °C) [2, 5]: 6 h
pKaH+ (MeCN) ([3]; Table 1, rotaxanes): 26.3
pKaH+ ([3]; in CD3CN): 26.3 ± 0.22 and 26.3 ± 0.2
Half-life, t1/2 ([4]; 80 °C): 10.8 days
half-life (h) (25 °C) ([4]; 25 °C): >5000 h
half-life (h) (80 °C) ([4]; 80 °C): 260 h
Structure (SMILES): C1COCCOCCOCCOCCOCCOCCOCCO1.CC(C)(C)c1cc(CNCc2cc(C(C)(C)C)cc(C(C)(C)C)c2)cc(C(C)(C)C)c1 [24C8⊂2]
rate of substrate deprotonation relative to the other rotaxanes in the series ([4]; in words): much more slowly

Half-life [2, 6]: 6.2 h
pKaH+ (MeCN) ([3]; Table S2, rotaxane HPF6 salts): 26.3
Structure (SMILES): C1COCCOCCOCCOCCOCCOCCOCCO1.CC(C)(C)c1cc(C[NH2+]Cc2cc(C(C)(C)C)cc(C(C)(C)C)c2)cc(C(C)(C)C)c1.F[P-](F)(F)(F)(F)F [24C8⊂2•HPF6]

hydrolytic stability (in words) ([2]; 1 M NaOD, 9:1 CD3OD/D2O): stable
half-life (25 °C) [2, 5]: >170 h
half-life (80 °C) [2, 7]: >170 h
pKaH+ (MeCN) ([3]; Table 1, rotaxanes): 20.5
pKaH+ ([3]; in CD3CN): 20.5 ± 0.1
Half-life, t1/2 ([4]; 25 °C): 7.317 days
half-life (h) (25 °C) ([4]; 25 °C): 176 h
Structure (SMILES): C1COCCOCCOCCOCCOCCOCCOCCO1.FC(F)(F)c1cc(CNCc2cc(C(F)(F)F)cc(C(F)(F)F)c2)cc(C(F)(F)F)c1 [24C8⊂3]

Half-life [2, 8]: > 170 h
pKaH+ (MeCN) ([3]; Table S2, rotaxane HPF6 salts): 20.5
Structure (SMILES): C1COCCOCCOCCOCCOCCOCCOCCO1.FC(F)(F)c1cc(C[NH2+]Cc2cc(C(F)(F)F)cc(C(F)(F)F)c2)cc(C(F)(F)F)c1.F[P-](F)(F)(F)(F)F [24C8⊂3•HPF6]

pKaH+ ([3]; in CD3CN): 22.9 ± 0.3 and 22.9 ± 0.1
Structure (SMILES): C1COCCOCCOCCOCCOCCOCCOCCO1.CC(C)(C)c1cc(CNCc2cc(C(F)(F)F)cc(C(F)(F)F)c2)cc(C(C)(C)C)c1 [24C8⊂4]

pKaH+ ([3]; in CD3CN): 23.2 ± 0.3 and 23.2 ± 0.2
Structure (SMILES): C1COCCOCCOCCOCCOCCOCCOCCO1.COc1c(C(C)(C)C)cc(CNCc2cc(C(F)(F)F)cc(C(F)(F)F)c2)cc1C(C)(C)C [24C8⊂5]

Half-life [2, 8]: > 170 h
pKaH+ (MeCN) ([3]; Table S2, rotaxane HPF6 salts): 20.3
Structure (SMILES): FC(F)(F)c1cc(C[NH2+]Cc2cc(C(F)(F)F)cc(C(F)(F)F)c2)cc(C(F)(F)F)c1.F[P-](F)(F)(F)(F)F.c1ccc2c(c1)OCCOCCOCCOc1ccccc1OCCOCCOCCO2 [DB24C8⊂3•HPF6]

Half-life [2, 8]: > 170 h
pKaH+ (MeCN) ([3]; Table S2, rotaxane HPF6 salts): 20.7
Structure (SMILES): F[P-](F)(F)(F)(F)F.O=C(CC[NH2+]Cc1cc(C(F)(F)F)cc(C(F)(F)F)c1)Nc1cc(C(F)(F)F)cc(C(F)(F)F)c1.c1ccc2c(c1)OCCOCCOCCOc1ccccc1OCCOCCOCCO2 [DB24C8⊂8•HPF6]
